Consider 6 compounds from ChEMBL document CHEMBL1201862, “PubChem BioAssay data set” (2004).

Activity calls are given as the source filed them. Some results are limits rather than exact numbers.

Experiment [1] has as its target Lysine-specific demethylase 4C (Homo sapiens, UniProt Q9H3R0). Put plainly: inhibition of JMJD2C H3K9me3 demethylation – biochemical, DELFIA europium, cherry-picked samples, dose response (AID 488835). It counts as functional.
The target in another experiment is Phosphomannomutase 2 (Homo sapiens, UniProt O15305). In words: Counter screen SAR assay for PMM2 inhibitors via a fluorescence intensity assay. [Related pubchem assays (depositor defined):AID1545, AID1574]. For orientation: Counterscreens check selectivity or assay interference.
In experiment [2] the target is T1, Mannose-6-phosphate isomerase (Homo sapiens, UniProt P34949).
T1 sequence (P34949 whole entry): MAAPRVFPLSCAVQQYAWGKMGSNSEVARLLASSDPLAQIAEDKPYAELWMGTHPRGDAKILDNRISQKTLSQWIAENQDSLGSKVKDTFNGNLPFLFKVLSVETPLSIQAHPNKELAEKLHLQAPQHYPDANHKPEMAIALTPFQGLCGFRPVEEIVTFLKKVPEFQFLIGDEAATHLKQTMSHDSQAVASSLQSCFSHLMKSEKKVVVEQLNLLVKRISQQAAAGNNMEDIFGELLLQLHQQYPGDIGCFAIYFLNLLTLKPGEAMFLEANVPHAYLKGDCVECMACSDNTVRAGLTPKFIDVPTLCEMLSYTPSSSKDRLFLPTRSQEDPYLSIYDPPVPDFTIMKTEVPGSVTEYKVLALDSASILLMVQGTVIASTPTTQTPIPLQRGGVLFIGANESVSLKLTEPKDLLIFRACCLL
In words: Confirmation of compounds inhibiting phosphomannose isomerase (PMI) via a fluorescence intensity assay using a high concentration of mannose 6-phosphate. [Related pubchem assays (depositor defined):AID1209, AID1220, AID1545, AID1553, AID1620].

The target in experiment [3] is T1, Mannose-6-phosphate isomerase. In words: phosphomannose isomerase inhibition – biochemical, fluorescence intensity, confirmation (AID 1535).
The next experiment deals with Phospholipase D2 (Homo sapiens, UniProt O14939). Put plainly: cellular phospholipase D2 inhibition IC50 – cell-based, dose response (AID 602147).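 Also: cellular assay in HEK293 cells overexpressing GFP-tagged PLD2.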 It is filed as functional.
The target of a further experiment is SUMO E1/E2 (Homo sapiens, UniProt P63279+Q9UBE0+Q9UBT2). Put plainly: SAR analysis of SUMOylation using HTRF in an in-Vitro dose response assay. [Related pubchem assays (depositor defined):AID2006, AID2011, AID2018, AID2069, AID2658]. It counts as functional. For orientation: TR-FRET usually uses a lanthanide donor and a delayed reading to cut background.
The target in experiment [4] is T2, Intestinal-type alkaline phosphatase (Homo sapiens, UniProt P09923). In words: activation of human intestinal alkaline phosphatase – biochemical, luminescent, uHTS hits, set 2, dose response (AID 488817).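 Also: potency of activators that raise enzyme activity.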 It is filed as functional.
For a further experiment, the target named is T3, Streptokinase A (Streptococcus pyogenes serotype M1, UniProt P10520).
T3 sequence (P10520 whole entry): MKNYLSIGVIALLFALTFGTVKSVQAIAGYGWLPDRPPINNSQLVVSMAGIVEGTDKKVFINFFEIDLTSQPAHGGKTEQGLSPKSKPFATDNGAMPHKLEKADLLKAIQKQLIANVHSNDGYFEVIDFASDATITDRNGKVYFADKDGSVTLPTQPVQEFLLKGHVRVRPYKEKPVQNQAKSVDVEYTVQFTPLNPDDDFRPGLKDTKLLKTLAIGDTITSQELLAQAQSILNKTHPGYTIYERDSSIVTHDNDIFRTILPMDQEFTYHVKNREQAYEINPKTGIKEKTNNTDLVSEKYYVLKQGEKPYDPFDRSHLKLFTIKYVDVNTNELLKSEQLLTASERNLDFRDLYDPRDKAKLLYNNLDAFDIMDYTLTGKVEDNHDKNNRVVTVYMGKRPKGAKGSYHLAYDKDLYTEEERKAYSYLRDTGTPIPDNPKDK
In words: viability-normalized secreted streptokinase activity reduction – plasminogen activation absorbance, OD405, dose response (AID 1914).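 Also: secreted streptokinase activity via plasminogen activation per viability signal from cell pellet.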 It is filed as functional, Streptococcus pyogenes M1 GAS.

Experiment [5] deals with T4, Alkaline phosphatase, tissue-nonspecific isozyme (Homo sapiens, UniProt P05186).
T4 sequence (P05186 whole entry): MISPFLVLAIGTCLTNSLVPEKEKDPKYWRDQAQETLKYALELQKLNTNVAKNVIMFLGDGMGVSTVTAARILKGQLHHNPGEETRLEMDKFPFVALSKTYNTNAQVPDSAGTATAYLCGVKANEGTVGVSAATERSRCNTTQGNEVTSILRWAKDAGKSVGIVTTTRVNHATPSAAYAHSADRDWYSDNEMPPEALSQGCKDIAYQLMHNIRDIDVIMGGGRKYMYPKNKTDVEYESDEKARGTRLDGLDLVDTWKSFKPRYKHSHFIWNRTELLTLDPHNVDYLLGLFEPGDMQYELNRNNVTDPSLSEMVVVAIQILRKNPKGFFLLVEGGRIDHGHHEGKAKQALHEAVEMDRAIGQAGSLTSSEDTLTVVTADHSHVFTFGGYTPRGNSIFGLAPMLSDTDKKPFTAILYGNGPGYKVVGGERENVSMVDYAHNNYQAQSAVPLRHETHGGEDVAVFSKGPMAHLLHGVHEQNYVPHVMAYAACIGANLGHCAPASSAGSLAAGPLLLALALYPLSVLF
In words: activation of tissue-nonspecific alkaline phosphatase – biochemical, TNAP isozyme, human IAP uHTS hits, selectivity assay for human IAP activator project, dose response (AID 488886).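 Also: potency of compounds raising TNAP activity as a selectivity check on IAP activators.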 It counts as functional.

In experiment [6] the target is T2, Intestinal-type alkaline phosphatase. Put plainly: human intestinal alkaline phosphatase activators, dose response, biochemical, luminescence, uHTS hits (AID 463120). It is filed as functional.
The target in experiment [7] is Intestinal-type alkaline phosphatase (Mus musculus, UniProt P24822). In words: PubChem AID 488875. It counts as functional.
The target in a further experiment is CAAX prenyl protease 1 (Saccharomyces cerevisiae S288c, UniProt P47154). In words: yeast CAAX protease Ste24 inhibition – biochemical, S. cerevisiae, plate reader, cherry-pick, dose response (AID 488815).
A further experiment concerns the target Trypsin (Sus scrofa, UniProt P00761). Put plainly: trypsin protease activity blockade – biochemical, quenched peptide fluorescence, cherry-pick, selectivity assay for Rce1 protease inhibitor project, dose response (AID 488789).
Another experiment deals with T5, CAAX prenyl protease 2 (Saccharomyces cerevisiae S288c, UniProt Q03530).
T5 sequence (Q03530 whole entry): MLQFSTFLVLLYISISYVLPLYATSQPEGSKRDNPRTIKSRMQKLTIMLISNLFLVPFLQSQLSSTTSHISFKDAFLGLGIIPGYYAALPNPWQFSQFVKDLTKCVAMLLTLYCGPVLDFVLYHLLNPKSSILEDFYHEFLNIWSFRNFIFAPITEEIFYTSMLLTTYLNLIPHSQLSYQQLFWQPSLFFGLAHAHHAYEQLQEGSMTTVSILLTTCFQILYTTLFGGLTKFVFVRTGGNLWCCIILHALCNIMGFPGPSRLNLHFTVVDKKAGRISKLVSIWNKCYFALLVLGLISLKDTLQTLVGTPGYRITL
It counts as biochemical.

T2 sequence (P09923 whole entry): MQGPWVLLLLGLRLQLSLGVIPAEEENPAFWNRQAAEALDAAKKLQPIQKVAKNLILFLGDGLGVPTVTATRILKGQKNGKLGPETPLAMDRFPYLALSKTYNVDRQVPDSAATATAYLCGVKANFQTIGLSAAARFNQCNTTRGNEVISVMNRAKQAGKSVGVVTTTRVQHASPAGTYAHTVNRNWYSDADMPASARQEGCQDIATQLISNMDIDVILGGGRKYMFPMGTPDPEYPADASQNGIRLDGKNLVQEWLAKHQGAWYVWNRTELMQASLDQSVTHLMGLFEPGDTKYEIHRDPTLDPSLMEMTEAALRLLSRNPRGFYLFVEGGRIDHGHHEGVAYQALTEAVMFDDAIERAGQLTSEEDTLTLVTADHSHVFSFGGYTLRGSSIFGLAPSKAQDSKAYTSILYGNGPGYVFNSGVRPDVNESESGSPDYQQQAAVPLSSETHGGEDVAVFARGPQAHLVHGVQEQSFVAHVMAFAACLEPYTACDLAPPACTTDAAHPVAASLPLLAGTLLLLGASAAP
Sequence of Intestinal-type alkaline phosphatase (Mus musculus, UniProt P24822) (P24822 whole entry): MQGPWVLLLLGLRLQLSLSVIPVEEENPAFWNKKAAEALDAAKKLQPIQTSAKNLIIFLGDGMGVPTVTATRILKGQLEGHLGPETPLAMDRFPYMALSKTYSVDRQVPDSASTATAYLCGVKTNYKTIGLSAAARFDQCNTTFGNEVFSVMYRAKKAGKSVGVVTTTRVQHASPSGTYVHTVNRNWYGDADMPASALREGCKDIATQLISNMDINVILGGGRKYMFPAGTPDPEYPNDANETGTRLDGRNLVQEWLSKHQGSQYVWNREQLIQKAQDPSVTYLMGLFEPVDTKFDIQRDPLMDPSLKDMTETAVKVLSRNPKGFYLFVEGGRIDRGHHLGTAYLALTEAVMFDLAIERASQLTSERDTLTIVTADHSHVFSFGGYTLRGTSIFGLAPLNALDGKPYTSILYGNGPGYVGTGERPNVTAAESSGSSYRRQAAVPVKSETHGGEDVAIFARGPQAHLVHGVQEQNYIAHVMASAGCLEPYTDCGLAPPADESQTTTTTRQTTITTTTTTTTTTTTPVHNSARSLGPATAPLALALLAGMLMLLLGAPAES
Sequence of SUMO E1/E2 (Q9UBE0 whole entry): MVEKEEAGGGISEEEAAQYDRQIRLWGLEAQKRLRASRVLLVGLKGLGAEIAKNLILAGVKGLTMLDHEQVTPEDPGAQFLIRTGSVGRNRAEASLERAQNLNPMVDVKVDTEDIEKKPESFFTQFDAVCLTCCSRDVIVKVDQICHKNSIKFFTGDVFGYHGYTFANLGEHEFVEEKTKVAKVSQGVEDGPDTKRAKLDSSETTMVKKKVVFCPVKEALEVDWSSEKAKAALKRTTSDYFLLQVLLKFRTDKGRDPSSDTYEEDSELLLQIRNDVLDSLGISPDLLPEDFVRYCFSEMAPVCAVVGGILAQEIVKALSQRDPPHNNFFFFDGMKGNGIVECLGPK
Sequence of SUMO E1/E2 (Q9UBT2 whole entry): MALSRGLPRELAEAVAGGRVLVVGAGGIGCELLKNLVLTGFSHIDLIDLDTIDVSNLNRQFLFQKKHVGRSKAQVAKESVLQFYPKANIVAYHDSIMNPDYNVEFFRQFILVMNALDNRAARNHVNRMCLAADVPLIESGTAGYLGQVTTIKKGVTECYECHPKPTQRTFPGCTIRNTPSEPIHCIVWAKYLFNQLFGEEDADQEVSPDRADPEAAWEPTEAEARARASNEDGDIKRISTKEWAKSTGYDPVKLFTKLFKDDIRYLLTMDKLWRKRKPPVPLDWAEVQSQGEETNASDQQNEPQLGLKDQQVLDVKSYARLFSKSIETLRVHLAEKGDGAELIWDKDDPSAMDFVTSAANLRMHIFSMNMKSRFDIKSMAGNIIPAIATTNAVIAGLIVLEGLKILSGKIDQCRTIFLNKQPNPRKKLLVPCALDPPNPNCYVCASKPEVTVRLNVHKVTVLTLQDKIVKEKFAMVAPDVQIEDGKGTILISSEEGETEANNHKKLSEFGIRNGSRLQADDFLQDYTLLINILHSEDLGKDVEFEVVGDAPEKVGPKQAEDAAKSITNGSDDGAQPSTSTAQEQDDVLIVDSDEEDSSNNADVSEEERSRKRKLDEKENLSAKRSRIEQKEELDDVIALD
Sequence of SUMO E1/E2 (P63279 whole entry): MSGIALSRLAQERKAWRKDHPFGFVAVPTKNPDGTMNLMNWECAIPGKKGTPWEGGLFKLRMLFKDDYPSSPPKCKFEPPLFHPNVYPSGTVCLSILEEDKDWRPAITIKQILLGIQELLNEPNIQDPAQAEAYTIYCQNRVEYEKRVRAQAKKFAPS
Sequence of Trypsin (P00761 whole entry): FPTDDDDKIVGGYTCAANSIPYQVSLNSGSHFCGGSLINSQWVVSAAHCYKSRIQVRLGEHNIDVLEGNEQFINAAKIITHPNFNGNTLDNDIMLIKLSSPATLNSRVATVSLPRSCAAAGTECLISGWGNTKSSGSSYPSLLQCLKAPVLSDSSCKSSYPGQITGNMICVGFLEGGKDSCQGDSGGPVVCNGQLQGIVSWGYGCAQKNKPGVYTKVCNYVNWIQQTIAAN
Sequence of Lysine-specific demethylase 4C (Q9H3R0 whole entry): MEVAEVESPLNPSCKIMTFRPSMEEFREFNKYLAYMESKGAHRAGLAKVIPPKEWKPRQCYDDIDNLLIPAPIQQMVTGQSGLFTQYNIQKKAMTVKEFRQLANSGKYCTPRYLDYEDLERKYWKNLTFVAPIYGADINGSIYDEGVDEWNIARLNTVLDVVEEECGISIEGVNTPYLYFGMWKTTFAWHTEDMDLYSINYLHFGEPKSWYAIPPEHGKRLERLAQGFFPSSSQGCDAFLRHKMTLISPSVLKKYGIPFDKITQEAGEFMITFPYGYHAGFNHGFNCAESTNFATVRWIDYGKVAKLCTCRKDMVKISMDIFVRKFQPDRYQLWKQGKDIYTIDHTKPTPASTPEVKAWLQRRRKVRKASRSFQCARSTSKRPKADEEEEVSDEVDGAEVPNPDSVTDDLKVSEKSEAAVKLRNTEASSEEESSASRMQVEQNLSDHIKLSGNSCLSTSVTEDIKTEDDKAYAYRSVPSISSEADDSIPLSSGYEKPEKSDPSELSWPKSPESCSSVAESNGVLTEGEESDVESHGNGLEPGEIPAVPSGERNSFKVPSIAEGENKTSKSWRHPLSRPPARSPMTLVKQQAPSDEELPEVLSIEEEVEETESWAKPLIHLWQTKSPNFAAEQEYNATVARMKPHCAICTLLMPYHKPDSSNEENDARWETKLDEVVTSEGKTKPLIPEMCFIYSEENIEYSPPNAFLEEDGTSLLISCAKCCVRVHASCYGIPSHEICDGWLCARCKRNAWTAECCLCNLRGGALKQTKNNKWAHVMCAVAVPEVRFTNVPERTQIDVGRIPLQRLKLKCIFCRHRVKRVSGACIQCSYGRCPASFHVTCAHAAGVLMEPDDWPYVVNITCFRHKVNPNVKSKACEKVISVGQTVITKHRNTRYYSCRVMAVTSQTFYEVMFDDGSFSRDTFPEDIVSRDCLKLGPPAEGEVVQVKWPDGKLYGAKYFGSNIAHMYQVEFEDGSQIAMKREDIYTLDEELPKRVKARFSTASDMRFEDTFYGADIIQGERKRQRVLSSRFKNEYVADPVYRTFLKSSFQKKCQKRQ
Sequence of CAAX prenyl protease 1 (P47154 whole entry): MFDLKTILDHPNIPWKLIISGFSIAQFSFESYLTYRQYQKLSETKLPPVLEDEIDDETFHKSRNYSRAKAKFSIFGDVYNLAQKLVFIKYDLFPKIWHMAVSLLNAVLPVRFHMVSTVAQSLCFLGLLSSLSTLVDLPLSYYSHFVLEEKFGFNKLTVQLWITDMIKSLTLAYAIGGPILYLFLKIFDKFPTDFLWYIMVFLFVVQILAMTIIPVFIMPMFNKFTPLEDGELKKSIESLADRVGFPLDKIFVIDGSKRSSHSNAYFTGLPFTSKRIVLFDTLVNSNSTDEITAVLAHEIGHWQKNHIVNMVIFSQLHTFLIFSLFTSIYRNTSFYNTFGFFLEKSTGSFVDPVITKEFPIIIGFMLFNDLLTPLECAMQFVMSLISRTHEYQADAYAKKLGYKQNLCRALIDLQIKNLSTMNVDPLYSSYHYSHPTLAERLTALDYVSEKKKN
Sequence of Phospholipase D2 (O14939 whole entry): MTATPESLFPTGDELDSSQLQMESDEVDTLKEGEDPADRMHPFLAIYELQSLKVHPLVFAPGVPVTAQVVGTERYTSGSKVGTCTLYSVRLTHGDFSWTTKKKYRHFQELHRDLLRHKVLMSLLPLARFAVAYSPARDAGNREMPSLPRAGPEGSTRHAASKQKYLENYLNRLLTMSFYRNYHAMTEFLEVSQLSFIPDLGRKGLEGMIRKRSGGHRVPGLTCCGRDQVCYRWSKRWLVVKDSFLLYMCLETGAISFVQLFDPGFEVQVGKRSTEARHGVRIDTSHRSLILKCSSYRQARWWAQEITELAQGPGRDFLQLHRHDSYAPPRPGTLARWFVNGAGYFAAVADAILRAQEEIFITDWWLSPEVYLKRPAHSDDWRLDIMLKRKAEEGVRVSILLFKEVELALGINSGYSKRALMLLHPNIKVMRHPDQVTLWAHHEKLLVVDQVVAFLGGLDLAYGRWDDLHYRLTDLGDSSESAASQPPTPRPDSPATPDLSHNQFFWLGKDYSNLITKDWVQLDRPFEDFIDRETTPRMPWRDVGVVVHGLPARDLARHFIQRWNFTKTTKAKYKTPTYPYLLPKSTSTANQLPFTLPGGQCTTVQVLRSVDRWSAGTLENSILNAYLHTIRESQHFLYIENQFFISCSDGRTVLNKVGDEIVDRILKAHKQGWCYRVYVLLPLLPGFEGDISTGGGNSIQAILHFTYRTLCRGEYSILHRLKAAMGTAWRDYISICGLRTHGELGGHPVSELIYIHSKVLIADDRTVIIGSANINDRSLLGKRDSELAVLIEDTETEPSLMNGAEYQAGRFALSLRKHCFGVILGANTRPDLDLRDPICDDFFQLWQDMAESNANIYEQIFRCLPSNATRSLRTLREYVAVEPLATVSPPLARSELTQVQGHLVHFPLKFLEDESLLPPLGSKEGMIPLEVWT

For orientation: AC50 means the concentration at which the activity in the assay is half-maximal. Turning to `COc1ccccc1N1CCN(C(=O)CSc2nc(C)cc(O)n2)CC1`, the half-maximal activity concentration (AC50) in experiment [1] is 10.1 µM (active).

By IC50 is commonly meant the midpoint of a concentration-inhibition curve. Turning to `COc1ccc2c(=O)n(C3CCCC3)sc2c1`, the IC50 at Phosphomannomutase 2 is > 100 µM (inactive); in experiment [2] it was > 100 µM (inactive); in experiment [3], 86.8 µM (active).

For the compound `O=C(NCCN1CCC2(CC1)C(=O)NCN2c1ccc(F)c(F)c1)c1cc2cc(F)ccc2[nH]1`, the half-inhibitory concentration (IC50) at Phospholipase D2 is 0.097 µM (active).

`C/C(=N\OCc1nc2ccccc2c(=O)n1/N=C/c1ccccc1O)c1ccccc1`: the half-maximal inhibitory concentration (IC50) at SUMO E1/E2 is 29.2 µM (active).

Broadly, the EC50 is the concentration needed to bring the measured effect to its halfway point. For the compound `CCC(NC(=S)NC1CCCCC1)c1ccc(C(C)C)cc1` (centres undefined), the 50% effective concentration (EC50) is 52.4 µM (active) in experiment [4]; 43.4 µM (active) at Streptokinase A; 54.3 µM (active) in [5]; 81.2 µM (active) in [6]; 60.1 µM (active) in [7].

With `CCOc1ccc(C2C(C(=O)OC)=CN(C(C)c3ccccc3)C=C2C(=O)OC)cc1` (centres undefined), the concentration at half-maximal activity (AC50) on CAAX prenyl protease 1 was 5.08 µM (active); on Trypsin it was 5.7 µM (active); at CAAX prenyl protease 2 it was > 100 µM (inactive).
